Laboratory results as given in BindingDB's records for doi:10.1021/bi1011157 (Albert Einstein College of Medicine, 2010).

molecular target: T1, Pyrazinamidase/nicotinamidase PncA (Mycobacterium tuberculosis, UniProt Q50575); assay: Enzyme Assay
T1 sequence (Q50575 whole entry): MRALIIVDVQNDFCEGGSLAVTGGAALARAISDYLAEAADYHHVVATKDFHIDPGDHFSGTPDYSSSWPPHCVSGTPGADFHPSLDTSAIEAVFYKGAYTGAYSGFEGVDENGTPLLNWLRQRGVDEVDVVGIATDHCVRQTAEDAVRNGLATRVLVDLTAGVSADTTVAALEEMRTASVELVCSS
Experimental: Enzyme activity measurement by a coupled assay. initial velocities for the reaction of MtPncA were determined by monitoring the loss of absorbance at 340 nm associated with oxidation of NADH to NAD by L-glutamic dehydrogenase (GDH) to produce glutamate from alpha-ketoglutarate.

Going from O=Cc1cnccn1 [PncA Inhibitor, 1] to N#Cc1cnccn1 [PncA Inhibitor, 6], the Ki rises from 1.5 µM to 61 µM (41-fold).

Going from O=Cc1cccnc1 [PncA Inhibitor, 2] to OCc1cccnc1 [PncA Inhibitor, 4], the Ki rises from 0.3 µM to 63 µM (210-fold).

Compared with O=C(c1cccnc1)C(F)(F)F [PncA Inhibitor, 3], N#Cc1cccnc1 [PncA Inhibitor, 5] is 3-fold lower in Ki: 420 µM for the first, 140 µM for the second. The second binds more tightly here.
